Measurements from PubChem BioAssay AID248 (DTP/NCI, 2004).
Where “and” joins values, the source holds several entries; their conditions need not be identical. Equal values may be shown once. Toxic doses and inconclusive results are not listed.

Test system: L1210 leukemia ip in BDF1 mice, survival T/C
Assay: NCI In Vivo Anticancer Drug Screen. Data for tumor model L1210 Leukemia (intraperitoneal) in B6D2F1 (BDF1) mice
Conditions: endpoint: mean survival time, higher = longer survival
Summary of the method: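 In this screen, tumor-bearing mice given compound are compared to those given vehicle, and their survival values are reported as a treated-to-control quotient.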

[1] = dose: 100.0 mg/kg/injection, schedule: Q01DX009 (ip), vehicle: Klucel (hydroxypropylcellulose) (HPC)
[2] = dose: 200.0 mg/kg/injection, schedule: Q01DX009 (ip), vehicle: Klucel (hydroxypropylcellulose) (HPC)
[3] = dose: 400.0 mg/kg/injection, schedule: Q01DX009 (ip), vehicle: Klucel (hydroxypropylcellulose) (HPC)
[4] = dose: 100.0 mg/kg/injection, schedule: Q04DX002 (ip), vehicle: Klucel (hydroxypropylcellulose) (HPC)
[5] = dose: 100.0 mg/kg/injection, schedule: Q04DX003 (ip), vehicle: Klucel (hydroxypropylcellulose) (HPC)
[6] = dose: 200.0 mg/kg/injection, schedule: Q04DX002 (ip), vehicle: Klucel (hydroxypropylcellulose) (HPC)
[7] = dose: 200.0 mg/kg/injection, schedule: Q04DX003 (ip), vehicle: Klucel (hydroxypropylcellulose) (HPC)
[8] = dose: 400.0 mg/kg/injection, schedule: Q04DX002 (ip), vehicle: Klucel (hydroxypropylcellulose) (HPC)
[9] = dose: 400.0 mg/kg/injection, schedule: Q04DX003 (ip), vehicle: Klucel (hydroxypropylcellulose) (HPC)
[10] = dose: 100.0 mg/kg/injection, schedule: Q01DX009 (ip), vehicle: saline with Tween-80
[11] = dose: 100.0 mg/kg/injection, schedule: Q04DX003 (ip), vehicle: saline with Tween-80
[12] = dose: 200.0 mg/kg/injection, schedule: Q01DX009 (ip), vehicle: saline with Tween-80
[13] = dose: 200.0 mg/kg/injection, schedule: Q04DX003 (ip), vehicle: saline with Tween-80
[14] = dose: 400.0 mg/kg/injection, schedule: Q01DX009 (ip), vehicle: saline with Tween-80
[15] = dose: 400.0 mg/kg/injection, schedule: Q04DX003 (ip), vehicle: saline with Tween-80
[16] = dose: 50.0 mg/kg/injection, schedule: Q04DX003 (ip), vehicle: saline
[17] = dose: 100.0 mg/kg/injection, schedule: Q04DX003 (ip), vehicle: saline
[18] = dose: 200.0 mg/kg/injection, schedule: Q04DX003 (ip), vehicle: saline
[19] = dose: 50.0 mg/kg/injection, schedule: Q01DX009 (ip), vehicle: saline with Tween-80
[20] = dose: 50.0 mg/kg/injection, schedule: Q01DX009 (ip), vehicle: saline
[21] = dose: 100.0 mg/kg/injection, schedule: Q01DX009 (ip), vehicle: saline

In the case of `Cc1ccc(S(=O)(=O)OCC2Oc3ccccc3O2)cc1`, the T/C (dose: 75.0 mg/kg/injection, schedule: Q04DX003 (ip), vehicle: Klucel (hydroxypropylcellulose) (HPC)) was 93 % of control, the T/C (dose: 150.0 mg/kg/injection, schedule: Q04DX003 (ip), vehicle: Klucel (hydroxypropylcellulose) (HPC)) was 107 % of control and the T/C (dose: 300.0 mg/kg/injection, schedule: Q04DX003 (ip), vehicle: Klucel (hydroxypropylcellulose) (HPC)) was 100 % of control.

`CCOC(=O)c1nnc(SC)nc1SC` was tested, and the T/C (dose: 75.0 mg/kg/injection, schedule: Q01DX001 (ip), vehicle: alcohol) was 100 % of control and the T/C (dose: 150.0 mg/kg/injection, schedule: Q01DX001 (ip), vehicle: alcohol) was 108 % of control.

With `CC1OCOC2COCOC2C1O` (stereo not drawn) the T/C [1] was 92 % of control, the T/C [2] was 94 % of control and the T/C [3] was 97 % of control.

`CCOC(=O)/C=C(\c1ccccc1)c1ccc([N+](=O)[O-])cc1` was tested, and the T/C (dose: 100.0 mg/kg/injection, schedule: Q01DX001 (ip), vehicle: Klucel (hydroxypropylcellulose) (HPC)) was 94 % of control, the T/C [1] was 105 % of control and 90 % of control and the T/C [4] was 93 % of control and 98 % of control. For the same molecule, the T/C [5] was 107 % of control, the T/C (dose: 200.0 mg/kg/injection, schedule: Q01DX001 (ip), vehicle: Klucel (hydroxypropylcellulose) (HPC)) was 98 % of control and the T/C [2] was 103 % of control and 90 % of control. The T/C [6] was 100 % of control and 106 % of control, the T/C [7] was 102 % of control and the T/C (dose: 400.0 mg/kg/injection, schedule: Q01DX001 (ip), vehicle: Klucel (hydroxypropylcellulose) (HPC)) was 102 % of control. The T/C [3] was 106 % of control and 110 % of control, the T/C [8] was 98 % of control and 100 % of control and the T/C [9] was 98 % of control.

In the case of `NS(=O)Oc1ccc(Nc2ncnc3nc[nH]c23)cc1` (stereo not drawn), the T/C [10] was 97 % of control, the T/C [11] was 98 % of control and the T/C [12] was 95 % of control. For the same molecule, the T/C [13] was 102 % of control, the T/C [14] was 104 % of control and the T/C [15] was 98 % of control.

In the case of `[N-]=[N+]=[N-]`, the T/C (dose: 10.0 mg/kg/injection, schedule: Q01DX001 (ip), vehicle: saline) was 100 % of control and the T/C (dose: 20.0 mg/kg/injection, schedule: Q01DX001 (ip), vehicle: saline) was 100 % of control.

In the case of `CC(=O)OCC1OC(OC(C)=O)C(NC(=O)N(C)C)C(OC(C)=O)C1OC(C)=O` (stereo not drawn), the T/C [16] was 103 % of control, the T/C [5] was 101 % of control and the T/C [17] was 106 % of control. For the same molecule, the T/C [7] was 103 % of control, the T/C [18] was 101 % of control and the T/C [9] was 103 % of control.

In the case of `Cc1ccnc(-n2c(N)cc(=O)[nH]c2=S)c1`, the T/C (dose: 100.0 mg/kg/injection, schedule: Q04DX002 (ip), vehicle: saline) was 102 % of control, the T/C (dose: 200.0 mg/kg/injection, schedule: Q04DX002 (ip), vehicle: saline) was 107 % of control and the T/C (dose: 400.0 mg/kg/injection, schedule: Q04DX002 (ip), vehicle: saline) was 107 % of control.

For `N#CCCN(C(=O)Nc1cc(C(F)(F)F)ccc1Cl)C1CCCCC1`, the T/C [4] was 96 % of control, the T/C [6] was 96 % of control and the T/C [8] was 105 % of control.

`Nc1ccc2c(c1)Cc1ccccc1-2` was tested, and the T/C [11] was 101 % of control and the T/C [13] was 101 % of control.

For `CN(C)c1ccc(/C=N/NC(=O)CNC(=O)Nc2nccs2)c(Cl)c1`, the T/C [19] was 100 % of control, the T/C [10] was 89 % of control and the T/C [12] was 89 % of control.

`CCCCCCCOC(=O)COc1ccc(Cl)cc1Cl` was tested, and the T/C [4] was 90 % of control, the T/C [6] was 87 % of control and the T/C [8] was 97 % of control.

`CCC(C)NC(=O)Nc1cccc(Cl)c1C` (stereo not drawn) was tested, and the T/C [10] was 86 % of control, the T/C [11] was 90 % of control and the T/C [13] was 95 % of control. For the same molecule, the T/C [14] was 89 % of control and the T/C [15] was 103 % of control.

`CCOC(OCC)C(C)(C)CNC` was tested, and the T/C (dose: 100.0 mg/kg/injection, schedule: Q01DX001 (ip), vehicle: saline sonified) was 90 % of control, the T/C (dose: 200.0 mg/kg/injection, schedule: Q01DX001 (ip), vehicle: saline sonified) was 101 % of control and the T/C (dose: 400.0 mg/kg/injection, schedule: Q01DX001 (ip), vehicle: saline sonified) was 107 % of control.

For `Cc1c(Cl)cccc1N1C(=O)CC(Sc2ccccc2N)C1=O` (stereo not drawn), the T/C [1] was 95 % of control, the T/C [10] was 106 % of control and the T/C [5] was 92 % of control. For the same molecule, the T/C [11] was 94 % of control, the T/C [2] was 92 % of control and the T/C [12] was 107 % of control. For the same molecule, the T/C [13] was 88 % of control, the T/C [14] was 109 % of control and the T/C [9] was 89 % of control. For the same molecule, the T/C [15] was 93 % of control.

With `Nc1cc(N)c(N)cc1N` the T/C (dose: 9.38 mg/kg/injection, schedule: Q01DX001 (ip), vehicle: saline) was 95 % of control, the T/C (dose: 18.75 mg/kg/injection, schedule: Q01DX001 (ip), vehicle: saline) was 101 % of control and the T/C (dose: 37.5 mg/kg/injection, schedule: Q01DX001 (ip), vehicle: saline) was 111 % of control.

In the case of `ICC1OCOC2C(CI)OCOC12` (stereo not drawn), the T/C (dose: 100.0 mg/kg/injection, schedule: Q01DX001 (ip), vehicle: other) was 103 % of control, the T/C (dose: 200.0 mg/kg/injection, schedule: Q01DX001 (ip), vehicle: other) was 93 % of control and the T/C (dose: 400.0 mg/kg/injection, schedule: Q01DX001 (ip), vehicle: other) was 103 % of control.

With `CCCNC(=O)Oc1ccccc1-c1ccccc1` the T/C (dose: 100.0 mg/kg/injection, schedule: Q04DX002 (ip), vehicle: saline with Tween-80) was 92 % of control, the T/C (dose: 200.0 mg/kg/injection, schedule: Q04DX002 (ip), vehicle: saline with Tween-80) was 103 % of control and the T/C (dose: 400.0 mg/kg/injection, schedule: Q04DX002 (ip), vehicle: saline with Tween-80) was 110 % of control.

For `NC(=O)C1=CNCCC1`, the T/C (dose: 6.25 mg/kg/injection, schedule: Q01DX001 (ip), vehicle: saline) was 98 % of control, the T/C (dose: 12.5 mg/kg/injection, schedule: Q01DX001 (ip), vehicle: saline) was 104 % of control and the T/C (dose: 25.0 mg/kg/injection, schedule: Q01DX001 (ip), vehicle: saline) was 101 % of control. For the same molecule, the T/C (dose: 50.0 mg/kg/injection, schedule: Q01DX001 (ip), vehicle: saline) was 93 % of control and 118 % of control, the T/C (dose: 100.0 mg/kg/injection, schedule: Q01DX001 (ip), vehicle: saline) was 114 % of control and the T/C (dose: 200.0 mg/kg/injection, schedule: Q01DX001 (ip), vehicle: saline) was 109 % of control. For the same molecule, the T/C (dose: 400.0 mg/kg/injection, schedule: Q01DX001 (ip), vehicle: saline) was 118 % of control.

For `CNc1ccccc1C(N)=S`, the T/C [20] was 111 % of control, the T/C [16] was 106 % of control and the T/C [21] was 97 % of control. The T/C [17] was 105 % of control, the T/C (dose: 200.0 mg/kg/injection, schedule: Q01DX009 (ip), vehicle: saline) was 101 % of control and the T/C [18] was 105 % of control.

`Cc1ccc([N+](=O)[O-])cc1NC(=O)NNC(=O)CNC(=O)Nc1ccc(F)cc1` was tested, and the T/C (dose: 25.0 mg/kg/injection, schedule: Q01DX009 (ip), vehicle: saline with Tween-80) was 94 % of control, the T/C [19] was 86 % of control and the T/C [10] was 100 % of control.

With `O=C(Nc1ccccc1Cl)Nc1ccccc1Br` the T/C (dose: 100.0 mg/kg/injection, schedule: Q04DX002 (ip), vehicle: saline + alcohol) was 103 % of control, the T/C (dose: 200.0 mg/kg/injection, schedule: Q04DX002 (ip), vehicle: saline + alcohol) was 96 % of control and the T/C (dose: 400.0 mg/kg/injection, schedule: Q04DX002 (ip), vehicle: saline + alcohol) was 92 % of control.

In the case of `C/C=N/N(C)C=O`, the T/C [17] was 104 % of control and the T/C [18] was 119 % of control.

In the case of `Nc1ccn(C2OC(CO)C(O)C2OP(=O)(O)OCC2OC(n3ccc(=O)[nH]c3=O)CC2O)c(=O)n1` (stereo not drawn), the T/C [20] was 153 % of control and the T/C [21] was 166 % of control.

For `Cc1ccc(S(=O)(=O)/N=C(\N)CCl)cc1`, the T/C (dose: 12.5 mg/kg/injection, schedule: Q04DX002 (ip), vehicle: saline with Tween-80) was 98 % of control, the T/C (dose: 25.0 mg/kg/injection, schedule: Q04DX002 (ip), vehicle: saline with Tween-80) was 120 % of control and the T/C (dose: 50.0 mg/kg/injection, schedule: Q04DX002 (ip), vehicle: saline with Tween-80) was 95 % of control.

With `Cc1ccc(Nc2nc(N)nc(N)c2N=O)cc1Cl` the T/C (dose: 100.0 mg/kg/injection, schedule: Q01DX Z (ip), vehicle: methylcellulose (MC)) was 104 % of control and the T/C (dose: 200.0 mg/kg/injection, schedule: Q01DX Z (ip), vehicle: methylcellulose (MC)) was 89 % of control.
